Experimental data as given in US11214594B2, “Antimicrobial peptide having synergistic antibacterial effect with antibiotics on multidrug resistant bacteria, and use thereof” (priority 2016, dated 2022).
In brackets after ≈: the same amount, converted by molar mass. Where two headings read alike, the source gives them in different places. Where a SMILES comes first, the peptide text is derived from it.

Columns and labels:
MDRST 8009 = type: cell-based, Salmonella typhimurium; conditions: agent alone
Procedure, shortened: (§1)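 Peptides were serially diluted twofold in Mueller-Hinton medium and combined 1:1 with bacterial suspensions prepared at 2×10^6 CFU. Readout was the minimal inhibitory concentration, i.e. the lowest concentration with no growth.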

MDREC 1229 [1] = assay: MIC of antibiotic during combined treatment with antimicrobial peptide; type: cell-based, Escherichia coli
Procedure, shortened: (§2)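 Strains in MH medium at 2×10^6 CFU/ml were mixed with peptide diluted stepwise (2:1) from its MIC, then antibiotic dilutions in MH medium were added to give the antibiotic MIC. The reversed set-up, peptide titrated against fixed antibiotic, gave the peptide MIC.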

MDRAB 12035 [2] = assay: MIC of antimicrobial peptide during combined treatment with antibiotic; type: cell-based, Acinetobacter baumannii
Procedure, shortened: as §2

A. baumannii [3] = assay: as above; type: cell-based, Acinetobacter baumannii
Procedure, shortened: as §2

MDRAB 12035 [4] = assay: MIC of antibiotic during combined treatment with antimicrobial peptide; type: cell-based, Acinetobacter baumannii
Procedure, shortened: as §2

S. epidermidis = assay: microbe, parasite or virus in culture; type: cell-based, Staphylococcus epidermidis
Procedure, shortened: as §1

E. coli = type: cell-based, Escherichia coli; conditions: E. coli
Procedure, shortened: as §2

MDREC 1229 [5] = type: cell-based, Escherichia coli
Procedure, shortened: as §2

MDRPA 2003 = type: cell-based, Pseudomonas aeruginosa
Procedure, shortened: as §1

MDRAB 12036 = type: cell-based, Acinetobacter baumannii
Procedure, shortened: as §1

MDREC 1238 = type: cell-based, Escherichia coli
Procedure, shortened: as §1

A. baumannii [6] = assay: MIC of antibiotic during combined treatment with antimicrobial peptide; type: cell-based, Acinetobacter baumannii; conditions: A. baumannii
Procedure, shortened: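 Checkerboard-type MIC of peptide–antibiotic mixtures in MH medium: the antibiotic was serially diluted in MH medium and added to wells, then the reversed arrangement was also tested.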

P. aeruginosa = assay: microbe, parasite or virus in culture; type: cell-based, Pseudomonas aeruginosa
Procedure, shortened: as §1

[7] = peptide treatment concentration 1 μg/ml
[8] = peptide treatment concentration 2 μg/ml
[9] = peptide treatment concentration 4 μg/ml
[10] = peptide treatment concentration 6 μg/ml
[11] = peptide treatment concentration 8 μg/ml
[12] = peptide treatment concentration 16 μg/ml
[13] = peptide treatment concentration 32 μg/ml
[14] = peptide treatment concentration 64 μg/ml
[15] = erythromycin 4 μg/ml (Conc./MIC 1/8)
[16] = erythromycin 8 μg/ml (Conc./MIC 1/4)
[17] = erythromycin 16 μg/ml (Conc./MIC 1/2)
[18] = erythromycin 32 μg/ml (Conc./MIC 1)
[19] = vancomycin 512 μg/ml (Conc./MIC 1/2)
[20] = vancomycin 1024 μg/ml (Conc./MIC 1)
[21] = with Erythromycin […] (Conc./MIC 1)
[22] = combined with peptide at 1 μg/ml
[23] = combined with peptide at 2 μg/ml
[24] = combined with peptide at 4 μg/ml
[25] = combined with peptide at 6 μg/ml
[26] = combined with peptide at 8 μg/ml
[27] = combined with peptide at 16 μg/ml
[28] = combined with peptide at 32 μg/ml
[29] = combined with peptide at 64 μg/ml

## CC[C@H](C)[C@H](NC(=O)[C@H](CCCCN)NC(=O)[C@H](Cc1c[nH]c2ccccc12)NC(=O)[C@@H](N)CCCNC(=N)N)C(=O)N[C@@H](Cc1ccccc1)C(=O)N[C@@H](CCCCN)C(=O)N[C@@H](CCCCN)C(=O)N[C@H](C(=O)N1CCC[C@H]1C(=O)N[C@@H](CCCCN)C(=O)N[C@@H](Cc1ccccc1)C(=O)N[C@@H](CC(C)C)C(=O)N[C@@H](Cc1c[nH]cn1)C(=O)N[C@@H](CO)C(=O)N[C@@H](Cc1c[nH]c2ccccc12)C(=O)N[C@@H](CCCCN)C(=O)N[C@@H](CCCCN)C(=O)N[C@@H](Cc1c[nH]c2ccccc12)C(N)=O)[C@@H](C)CC [PapMA-4, RWK IFK KIP KFL HSW KKW-NH2] (H-RWKIFKKIPKFLHSWKKW-NH2; N-terminus assumed)
MDRST 8009
  Minimal inhibitory concentration MIC: 32 µg/mL (≈ 13 µM)
MDREC 1229 [1]; [7]
  Antibiotic MIC, Erythromycin: 64 µg/mL
  Antibiotic MIC, Linezolid: >128 µg/mL
  Antibiotic MIC, Vancomycin: >128 µg/mL
MDREC 1229 [1]; [8]
  Antibiotic MIC, Erythromycin: 32 µg/mL
  Antibiotic MIC, Linezolid: 64 µg/mL
  Antibiotic MIC, Vancomycin: >128 µg/mL
MDREC 1229 [1]; [9]
  Antibiotic MIC, Erythromycin: 16 µg/mL
  Antibiotic MIC, Linezolid: 64 µg/mL
  Antibiotic MIC, Vancomycin: >128 µg/mL
MDREC 1229 [1]; [10]
  Antibiotic MIC, Erythromycin: 16 µg/mL
  Antibiotic MIC, Linezolid: 64 µg/mL
  Antibiotic MIC, Vancomycin: >128 µg/mL
MDREC 1229 [1]; [11]
  Antibiotic MIC, Erythromycin: 4 µg/mL
  Antibiotic MIC, Linezolid: 16 µg/mL
  Antibiotic MIC, Vancomycin: 128 µg/mL
MDREC 1229 [1]; [12]
  Antibiotic MIC, Erythromycin: 0.25 µg/mL
  Antibiotic MIC, Linezolid: 4 µg/mL
  Antibiotic MIC, Vancomycin: 32 µg/mL
MDREC 1229 [1]; [13]
  Antibiotic MIC, Erythromycin: 0 µg/mL
  Antibiotic MIC, Linezolid: 0 µg/mL
  Antibiotic MIC, Vancomycin: 0 µg/mL
MDREC 1229 [1]; [14]
  Antibiotic MIC, Erythromycin: 0 µg/mL
  Antibiotic MIC, Linezolid: 0 µg/mL
  Antibiotic MIC, Vancomycin: 0 µg/mL
MDRAB 12035 [2]; [15]
  Peptide MIC during treatment with erythromycin: 4 µg/mL
MDRAB 12035 [2]; [16]
  Peptide MIC during treatment with erythromycin: 4 µg/mL
MDRAB 12035 [2]; [17]
  Peptide MIC during treatment with erythromycin: 2 µg/mL
MDRAB 12035 [2]; [18]
  Peptide MIC during treatment with erythromycin: 0 µg/mL
MDRAB 12035 [2]; linezolid 64 μg/ml (Conc./MIC 1/8)
  Peptide MIC during treatment with linezolid: 4 µg/mL
MDRAB 12035 [2]; linezolid 512 μg/ml (Conc./MIC 1)
  Peptide MIC during treatment with linezolid: 0 µg/mL
MDRAB 12035 [2]; linezolid […] (Conc./MIC 1/2)
  Peptide MIC during treatment with linezolid: 1 µg/mL
MDRAB 12035 [2]; linezolid […] (Conc./MIC 1/4)
  Peptide MIC during treatment with linezolid: 2 µg/mL
MDRAB 12035 [2]; [19]
  Peptide MIC during treatment with vancomycin: 2 µg/mL
MDRAB 12035 [2]; [20]
  Peptide MIC during treatment with vancomycin: 0.25 µg/mL
MDRAB 12035 [2]; vancomycin […] (Conc./MIC 1/4)
  Peptide MIC during treatment with vancomycin: 2 µg/mL
MDRAB 12035 [2]; vancomycin […] (Conc./MIC 1/8)
  Peptide MIC during treatment with vancomycin: 4 µg/mL
A. baumannii [3]; [15]
  Peptide MIC during treatment with antibiotic: 8 µg/mL
A. baumannii [3]; [16]
  Peptide MIC during treatment with antibiotic: 4 µg/mL
A. baumannii [3]; [17]
  Peptide MIC during treatment with antibiotic: 2 µg/mL
A. baumannii [3]; [18]
  Peptide MIC during treatment with antibiotic: 0 µg/mL
A. baumannii [3]; linezolid 32 μg/ml (Conc./MIC 1/8)
  Peptide MIC during treatment with antibiotic: 4 µg/mL
A. baumannii [3]; linezolid 64 μg/ml (Conc./MIC 1/4)
  Peptide MIC during treatment with antibiotic: 4 µg/mL
A. baumannii [3]; linezolid […] (Conc./MIC 1)
  Peptide MIC during treatment with antibiotic: 0 µg/mL
A. baumannii [3]; linezolid […] (Conc./MIC 1/2)
  Peptide MIC during treatment with antibiotic: 1 µg/mL
A. baumannii [3]; [19]
  Peptide MIC during treatment with antibiotic: 0.25 µg/mL
A. baumannii [3]; [20]
  Peptide MIC during treatment with antibiotic: 0 µg/mL
A. baumannii [3]; vancomycin […] (Conc./MIC 1/4)
  Peptide MIC during treatment with antibiotic: 0.25 µg/mL
A. baumannii [3]; vancomycin […] (Conc./MIC 1/8)
  Peptide MIC during treatment with antibiotic: 2 µg/mL
MDRAB 12035 [4]; [7]
  Erythromycin MIC during combined treatment with peptide: 32 µg/mL
  Linezolid MIC during combined treatment with peptide: >128 µg/mL
  Vancomycin MIC during combined treatment with peptide: >128 µg/mL
MDRAB 12035 [4]; [8]
  Erythromycin MIC during combined treatment with peptide: 16 µg/mL
  Linezolid MIC during combined treatment with peptide: 128 µg/mL
  Vancomycin MIC during combined treatment with peptide: >128 µg/mL
MDRAB 12035 [4]; [9]
  Erythromycin MIC during combined treatment with peptide: 8 µg/mL
  Linezolid MIC during combined treatment with peptide: 64 µg/mL
  Vancomycin MIC during combined treatment with peptide: 128 µg/mL
MDRAB 12035 [4]; [10]
  Erythromycin MIC during combined treatment with peptide: 4 µg/mL
  Linezolid MIC during combined treatment with peptide: 64 µg/mL
  Vancomycin MIC during combined treatment with peptide: 64 µg/mL
MDRAB 12035 [4]; [11]
  Erythromycin MIC during combined treatment with peptide: 2 µg/mL
  Linezolid MIC during combined treatment with peptide: 32 µg/mL
  Vancomycin MIC during combined treatment with peptide: 64 µg/mL
MDRAB 12035 [4]; [12]
  Erythromycin MIC during combined treatment with peptide: 0 µg/mL
  Linezolid MIC during combined treatment with peptide: 0 µg/mL
  Vancomycin MIC during combined treatment with peptide: 0 µg/mL
MDRAB 12035 [4]; [13]
  Erythromycin MIC during combined treatment with peptide: 0 µg/mL
  Linezolid MIC during combined treatment with peptide: 0 µg/mL
  Vancomycin MIC during combined treatment with peptide: 0 µg/mL
MDRAB 12035 [4]; [14]
  Erythromycin MIC during combined treatment with peptide: 0 µg/mL
  Linezolid MIC during combined treatment with peptide: 0 µg/mL
  Vancomycin MIC during combined treatment with peptide: 0 µg/mL
S. epidermidis
  Minimal inhibitory concentration MIC: >128 µg/mL
E. coli; [21]
  Peptide MIC: 0 µg/mL
E. coli; with Linezolid […] (Conc./MIC 1)
  Peptide MIC: 0 µg/mL
E. coli; with Vancomycin 1024 μg/ml (Conc./MIC 1)
  Peptide MIC: 0 µg/mL
MDREC 1229 [5]; [21]
  Peptide MIC: 0 µg/mL
MDREC 1229 [5]; with Linezolid 512 μg/ml (Conc./MIC 1)
  Peptide MIC: 0 µg/mL
MDRPA 2003
  Minimal inhibitory concentration MIC: 16 µg/mL (≈ 6.51 µM)
MDRAB 12036
  Minimal inhibitory concentration MIC: 16 µg/mL (≈ 6.51 µM)
MDREC 1238
  Minimal inhibitory concentration MIC: 32 µg/mL (≈ 13 µM)
A. baumannii [6]; [22]
  Antibiotic MIC, Erythromycin: 32 µg/mL
  Antibiotic MIC, Linezolid: >128 µg/mL
  Antibiotic MIC, Vancomycin: >128 µg/mL
A. baumannii [6]; [23]
  Antibiotic MIC, Erythromycin: 16 µg/mL
  Antibiotic MIC, Linezolid: 64 µg/mL
  Antibiotic MIC, Vancomycin: 128 µg/mL
A. baumannii [6]; [24]
  Antibiotic MIC, Erythromycin: 8 µg/mL
  Antibiotic MIC, Linezolid: 64 µg/mL
  Antibiotic MIC, Vancomycin: 64 µg/mL
A. baumannii [6]; [25]
  Antibiotic MIC, Erythromycin: 4 µg/mL
  Antibiotic MIC, Linezolid: 32 µg/mL
  Antibiotic MIC, Vancomycin: 64 µg/mL
A. baumannii [6]; [26]
  Antibiotic MIC, Erythromycin: 4 µg/mL
  Antibiotic MIC, Linezolid: 16 µg/mL
  Antibiotic MIC, Vancomycin: 32 µg/mL
A. baumannii [6]; [27]
  Antibiotic MIC, Erythromycin: 0 µg/mL
  Antibiotic MIC, Linezolid: 0 µg/mL
  Antibiotic MIC, Vancomycin: 0 µg/mL
A. baumannii [6]; [28]
  Antibiotic MIC, Erythromycin: 0 µg/mL
  Antibiotic MIC, Linezolid: 0 µg/mL
  Antibiotic MIC, Vancomycin: 0 µg/mL
A. baumannii [6]; [29]
  Antibiotic MIC, Erythromycin: 0 µg/mL
  Antibiotic MIC, Linezolid: 0 µg/mL
  Antibiotic MIC, Vancomycin: 0 µg/mL
P. aeruginosa
  Minimal inhibitory concentration MIC: 16 µg/mL (≈ 6.51 µM)
